Experimental data as given in US20230181560A1, “COMPOUND FOR PREVENTING OR TREATING A VIRAL INFECTION” (priority 2020, published 2023).
Read-outs that look alike come from different tables or passages of the source.

Columns and labels:
HIV = settings: WO2009/092897; cited from earlier work
SIV = settings: cited from earlier work
caspases = settings: cited from earlier work
[1] = system: CD4 T lymphocytes infected with HIV-1 lai; test: Annexin V staining (cell mortality/apoptosis) of HIV-1 infected CD4 T lymphocytes; assay type: cell-based; settings: 20 µM every two days; day 5 post-infection
SARS-CoV-2 [2] = test: microbe, parasite or virus in culture; assay type: cell-based
SARS-CoV-2 [3] = assay type: cell-based
SARS-CoV-2 [4] = assay type: cell-based; remark: listed apart in the source
HIV-1 lai = test: Intracellular P24 capsid protein staining by flow cytometry in HIV-1 infected CD4 T lymphocytes; assay type: cell-based; settings: 20 µM added every two days, staining day 4, 5, 6 post-infection

CC(C)C(NC(=O)c1ccc2ccccc2n1)C(=O)NC(CC(=O)O)C(=O)COc1c(F)cccc1F (stereo not shown) [Q-VD-OPh]
inhibition of viral replication in HIV-infected cells (HIV): inhibition of viral replication | AIDS disease progression and control of viral replication (SIV; SIV-infected rhesus macaques, five injections during primary infection): prevents AIDS disease progression | cancer development after treatment (SIV; six monkeys, four or five years after treatment): none of the animals have developed a cancer | caspase inhibitory activity (caspases): broad caspase inhibitor

CC(C)C(NC(=O)c1ccc2ccccc2n1)C(=O)NC(CCC(=O)O)C(=O)COc1c(F)cccc1F (stereo not shown) [Q-VE-OPh]
cell mortality (Annexin V surface staining) [1]: much less mortality than the infected cells | effect on the entry of the virus into the cell (SARS-CoV-2 [2]): no significant effect | inhibition at 50 µM (SARS-CoV-2 [2]; Severe acute respiratory syndrome coronavirus 2, Vero C1008, 72 h, read-out: inhibition of SARS-CoV-2 viral replication): ~99% | inhibition at 25 µM (SARS-CoV-2 [2]; Severe acute respiratory syndrome coronavirus 2, Vero C1008, 72 h, 25 µM, read-out: inhibition of SARS-CoV-2 viral replication): ~70% | expression of the viral Spike and Nucleocapsid proteins within infected cells (SARS-CoV-2 [3]): reduce significantly | relative expression of the Nucleocapsid (N) and NSP6 genes in supernatants of infected cells (SARS-CoV-2 [4]): reduce significantly | caspase inhibitory activity (caspases): does not show any caspase inhibitory activity | toxicity on Vero E6 cells (Vero E6 cells; 100 µM added for three days): without any toxicity | toxicity on Vero E6 cells (Vero E6 cells; 25, 50, 100 µM, infected (MOI 0.05) or not, 72 h post-infection): no toxicity effect | antiviral effect on HIV-1 replication (intracellular P24 capsid protein) (HIV-1 lai): same antiviral effect as the comparative Q-VD-OPh molecule

CC(C)[C@H](NC(=O)c1ccc2ccccc2n1)C(=O)N[C@@H](CC(=O)O)C(=O)COc1c(F)cccc1F [QVD-Unmethylated]
cell mortality (Annexin V surface staining) [1]: The results were the same | antiviral effect on HIV-1 replication (intracellular P24 capsid protein) (HIV-1 lai): same antiviral effect

COC(=O)C[C@H](NC(=O)[C@@H](NC(=O)c1ccc2ccccc2n1)C(C)C)C(=O)COc1c(F)cccc1F [QVD-methylated]
cell mortality (Annexin V surface staining) [1]: contrary | antiviral effect on HIV-1 replication (intracellular P24 capsid protein) (HIV-1 lai): same antiviral effect

CCO[C@@H]1OC(=O)C[C@@H]1NC(=O)[C@@H]1CCCN1C(=O)[C@@H](NC(=O)c1ccc(N)c(Cl)c1)C(C)(C)C [VX-765]
antiviral effect on HIV-1 replication (intracellular P24 capsid protein) (HIV-1 lai): no effect on the viral replication
